According to US8629164B2, “Inhibitors of NF-κB” (Profectus Biosciences, Inc., priority 2009, dated 2014):

Columns and labels:
RelB = target: T1, RelB (Homo sapiens, UniProt Q01201); test: TransAM NF-κB Family DNA Binding ELISA, RelB
T1 sequence (Q01201 1-579): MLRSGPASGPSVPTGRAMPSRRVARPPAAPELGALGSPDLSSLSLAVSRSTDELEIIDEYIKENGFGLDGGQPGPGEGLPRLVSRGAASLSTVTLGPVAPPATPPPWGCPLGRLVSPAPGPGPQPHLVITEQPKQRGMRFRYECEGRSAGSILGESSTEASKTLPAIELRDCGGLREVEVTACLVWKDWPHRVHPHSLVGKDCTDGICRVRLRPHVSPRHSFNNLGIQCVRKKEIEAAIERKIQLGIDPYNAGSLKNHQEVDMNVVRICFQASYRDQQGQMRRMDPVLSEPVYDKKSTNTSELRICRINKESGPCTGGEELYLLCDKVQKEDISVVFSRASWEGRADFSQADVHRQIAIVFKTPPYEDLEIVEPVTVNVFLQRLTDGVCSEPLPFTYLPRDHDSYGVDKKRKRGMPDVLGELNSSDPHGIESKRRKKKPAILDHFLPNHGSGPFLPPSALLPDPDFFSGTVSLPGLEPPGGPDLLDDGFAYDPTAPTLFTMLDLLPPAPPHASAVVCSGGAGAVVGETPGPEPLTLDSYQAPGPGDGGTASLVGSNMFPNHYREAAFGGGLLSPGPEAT
T1 sequence (Q00653 1-454 partner limits assumed): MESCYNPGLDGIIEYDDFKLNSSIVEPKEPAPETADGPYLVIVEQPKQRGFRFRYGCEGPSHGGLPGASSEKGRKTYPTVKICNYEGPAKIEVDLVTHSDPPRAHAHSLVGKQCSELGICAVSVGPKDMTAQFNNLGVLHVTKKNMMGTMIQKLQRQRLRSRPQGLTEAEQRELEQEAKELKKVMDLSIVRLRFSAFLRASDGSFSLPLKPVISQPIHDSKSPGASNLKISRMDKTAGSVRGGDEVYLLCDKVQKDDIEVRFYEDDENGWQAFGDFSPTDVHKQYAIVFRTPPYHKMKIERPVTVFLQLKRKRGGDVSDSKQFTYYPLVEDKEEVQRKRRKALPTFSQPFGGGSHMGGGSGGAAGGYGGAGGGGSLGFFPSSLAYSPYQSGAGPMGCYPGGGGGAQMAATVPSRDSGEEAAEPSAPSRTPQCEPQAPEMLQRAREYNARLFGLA
Protocol: (§1) Treated samples were then transferred to 30 μL Complete Binding Buffer (with DTT) in microplate wells pre-coated with the NF-κB consensus oligonucleotide. […] The plate was incubated for 1 hour at room temperature with gentle shaking and then washed 3 times with 200 μL 1× Wash Buffer. NF-κB p65, p50, p52, RelB, or c-Rel subunits bound to the plate were detected with 100 μL of the primary antibody (diluted 1:1000 in 1× Antibody Buffer) specific for that subunit. The plate was incubated for 1 hour at room temperature and then washed 3 times with 200 μL 1× Wash Buffer. Next, 100 μL of a HRP conjugated goat anti-rabbit antibody (diluted 1:1,000 in 1× Antibody Buffer) was added to each well. The plate was incubated for 1 hour at room temperature and then washed 4 times with 200 μL 1× Wash Buffer. 100 μL of room temperature Developing Solution was added to each well. The reaction was allowed to develop for 2-10 minutes until a medium dark blue color developed (depending on the subunit activity in the lot of extract or lot of recombinant protein used) and then the reaction was stopped with 100 μL Stop Solution yielding a yellow color. Absorbance was recorded using a Becton-Dickinson DTX 880 Multimode Detector at 450 nm with a reference wavelength subtracted at 620 nm.

[1] = tested on: IL-6 release from RAW264.7 cells; test: IL-6 release from LPS stimulated RAW264.7 cells; type: cell-based, mouse; details: for EC50: Mus musculus, RAW264.7, RAW 264.7 cells
Protocol: Specifically, A and B show the effects of the compound of Example 1 on soluble PGE2 and Il-6 secretion from RAW264.7 cells stimulated by 1 μg/mL of LPS. The cells were treated with the indicated concentrations of the compound of Example 1 for 2 hours, and then LPS was added and incubation continued for 4 hours. […]

NF-κB = test: 293-cell pTRH1-NF-κB-dscGFP reporter assay, TNF-α induced; type: cell-based; details: for EC50: Homo sapiens, HEK293, HEK293 cells, NF-κB driven GFP expression, read-out: NF-kB/293/GFP EC50
In short: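 HEK293 cells with stably integrated NF-κB reporters, pNF-κB-luc (3 elements) or pTRH1-NF-κB-dscGFP (4 elements). Cells pretreated 2 h with 0–40 μM compound, then stimulated with 20 ng/ml TNF-α for 18 h; luminescence or fluorescence read. Activity referenced to 0.5% DMSO control; median of three independent experiments.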

[2] = tested on: PGE2 release from RAW264.7 cells; test: PGE2 release from LPS stimulated RAW264.7 cells; type: cell-based, mouse; details: for EC50: Mus musculus, RAW264.7, RAW 264.7 cells
Protocol: Specifically, A and B show the effects of the compound of Example 1 on soluble PGE2 and Il-6 secretion from RAW264.7 cells stimulated by 1 μg/mL of LPS. The cells were treated with the indicated concentrations of the compound of Example 1 for 2 hours, and then LPS was added and incubation continued for 4 hours.
LPS stimulation induces the expression of COX-2 the enzyme responsible for prostaglandin E2.

p52 = target: T2, p52 (Homo sapiens, UniProt Q00653); test: TransAM NF-κB Family DNA Binding ELISA, p52; details: p52 binding IC50 (uM), cells without % sign
T2 sequence (Q00653 1-454 limits assumed): T1 sequence (Q00653 1-454 partner limits assumed)
Protocol: as §1

c-Rel = target: T3, c-Rel (Homo sapiens, UniProt Q04864); test: TransAM NF-κB Family DNA Binding ELISA, c-Rel; details: c-Rel binding IC50 (uM), cells without % sign
T3 sequence (Q04864 2-619 limits assumed): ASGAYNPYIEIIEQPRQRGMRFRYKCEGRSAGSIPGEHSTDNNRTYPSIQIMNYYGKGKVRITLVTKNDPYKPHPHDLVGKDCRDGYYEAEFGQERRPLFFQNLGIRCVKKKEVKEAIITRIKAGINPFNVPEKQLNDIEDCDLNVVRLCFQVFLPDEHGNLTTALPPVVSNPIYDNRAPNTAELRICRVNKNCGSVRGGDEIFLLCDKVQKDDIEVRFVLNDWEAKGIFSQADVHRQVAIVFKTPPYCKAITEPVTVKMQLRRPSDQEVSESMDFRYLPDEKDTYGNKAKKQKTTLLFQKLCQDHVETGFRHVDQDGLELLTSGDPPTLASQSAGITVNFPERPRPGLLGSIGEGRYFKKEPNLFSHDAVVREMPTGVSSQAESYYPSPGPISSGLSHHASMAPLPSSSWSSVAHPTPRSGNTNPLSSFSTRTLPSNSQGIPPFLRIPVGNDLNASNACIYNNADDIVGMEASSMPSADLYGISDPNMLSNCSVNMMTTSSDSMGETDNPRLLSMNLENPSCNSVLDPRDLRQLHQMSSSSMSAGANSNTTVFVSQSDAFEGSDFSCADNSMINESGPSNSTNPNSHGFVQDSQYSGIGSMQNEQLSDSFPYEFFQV
Protocol: as §1

p65 (RelA) = p65 (RelA) (Homo sapiens, UniProt Q04206); test: TransAM NF-κB Family DNA Binding ELISA, p65; details: for IC50: p65 binding IC50 (uM), binding to NF-κB sites
Protocol: as §1

[3] = RelB binding IC50 (uM), cells without % sign

Sequence of p65 (RelA) (Q04206 whole entry): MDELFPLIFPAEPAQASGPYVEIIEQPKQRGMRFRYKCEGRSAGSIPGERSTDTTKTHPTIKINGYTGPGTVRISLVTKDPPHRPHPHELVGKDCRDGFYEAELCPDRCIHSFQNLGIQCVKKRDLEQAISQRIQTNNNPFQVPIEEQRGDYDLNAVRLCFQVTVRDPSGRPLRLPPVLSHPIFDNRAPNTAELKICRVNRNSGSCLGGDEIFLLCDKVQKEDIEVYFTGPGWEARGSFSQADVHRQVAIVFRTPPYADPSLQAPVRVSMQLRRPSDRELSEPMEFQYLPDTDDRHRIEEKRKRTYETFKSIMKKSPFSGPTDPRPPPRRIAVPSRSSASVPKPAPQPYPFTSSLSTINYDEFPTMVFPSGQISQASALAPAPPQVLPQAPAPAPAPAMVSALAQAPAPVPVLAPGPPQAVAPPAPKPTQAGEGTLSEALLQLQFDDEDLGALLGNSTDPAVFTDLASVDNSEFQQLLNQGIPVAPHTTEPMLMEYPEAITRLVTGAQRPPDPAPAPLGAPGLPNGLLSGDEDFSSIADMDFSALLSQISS

Row | SMILES | IC50 (RelB; [3]) [µM] | IC50 (RelB; RelB binding to DNA IC50, FIG. 8, non-canonical pathway) [µM] | EC50 [1] [µM] | EC50 (NF-κB) [µM] | EC50 [2] [µM] | IC50 (p52) [µM] | IC50 (c-Rel) [µM] | inhibition of p65 (RelA) binding to DNA, comparison (p65 (RelA); FIG. 7, canonical pathway) | IC50 (p65 (RelA)) [µM] | inhibition of IL-6 ([1]; LPS stimulated RAW264.7, FIG. 5B) | IC50 (NF-κB; 2 hours pre-treatment, 20 ng/ml TNF-α 18 hours, median of three experiments ± standard error, read-out: median IC50, expression of the Green fluorescent protein gene) [µM] | decrease in downstream PGE2 synthesis ([2]; LPS stimulated, FIG. 5A)
1 | O=C(NC1=CC(=O)C2OC2C1O)c1cc2ccccc2nc1O (racemic) [Example 2, (±)-2-hydroxy-N-(2-hydroxy-5-oxo-7-oxabicyclo[4.1.0]hept-3-en-3-yl)quinoline-3-carboxamide] | 2 | ~2 | 0.24 | 0.21 | 1.8 | 6 | 2.1 | more potently than DHMEQ and parthenolide | 1.4 | – | – | –
2 | O=C(NC1=CC(=O)C2OC2C1O)c1cccnc1O (racemic) [Example 1, (±)-2-hydroxy-N-(2-hydroxy-5-oxo-7-oxabicyclo[4.1.0]hept-3-en-3-yl)nicotinamide] | 7.4 | – | 6.5 | 6.2 | 6.9 | 13 | 4.6 | – | 2.2 | inhibited in a dose dependent manor | 6.2 ± 0.5 | dose dependent
